Laboratory results as given in patent US20130287890A1, “INHIBITOR OF THE PRODUCTION OF ADVANCED GLYCATION END PRODUCTS” (UENO FINE CHEMICALS INDUSTRY, LTD., priority 2012, published 2013).

Key:
pentosidine = assay: Quantitative determination of pentosidine (FSK Pentosidine kit) after reaction at 120° C. for 60 minutes; assay type: biochemical; details: Test Example 1; for Pentosidine: lysine + arginine 0.2 g each, carbohydrate 3.40 g each, 120° C., 60 minutes
Procedure: Amino acids, carbohydrates and a phosphate buffer solution were charged in a 30 mL glass test tube in each amount shown in Table 1, followed by sealing and stirring. […] The filtrate thus obtained was used as a sample. The amino acids and carbohydrates used are as follows. Using a pentosidine measurement kit “FSK Pentosidine (registered trademark)” (manufactured by Fushimi Pharmaceutical Co., Ltd.), quantitative determination of pentosidine was performed. Thirty (30) or more minutes before use, reagents and pentosidine solid-phase plates were put to room temperature. After dilution of the sample, a 50 μL aliquot of the sample was dispensed to a pentosidine solid plate attached to the kit, and 50 μL of a first antibody solution was dispensed into wells other than the wells for measurement of reagent blank value. After the sample and the antibody solution were mixed by shaking the plate at 300 rpm for 1 minute, the solution was reacted at 37° C. for 1 hour. Next, the reaction solution was discarded, and 200 μL of rinsing fluid was dispensed to wash the plate. The washing was performed for 3 times. After liquid on the plate was removed, 100 μL of a second antibody solution was dispensed into wells other than the wells for measurement of reagent blank value. After the solution was mixed by shaking the plate at 300 rpm for 1 minute, the solution was reacted at 25° C. for 1 hour. Then, the reaction solution was discarded, and the plate was washed for 3 times with 200 μL of rinsing fluid again. Liquid on the plate was removed, and 100 μL of a color coupler was dispensed and left to stand for 10 minutes under a light shielding condition. Finally, 100 μL of a reaction stop solution was dispensed, and within 10 minutes after the dispensing, measurement was performed at main wavelength 450 nm/reference wavelength 630 nm using a micro-plate reader. The concentration of pentosidine was determined using the calibration curve of a pentosidine standard solution, based on measurement values of the sample.

human RAGE = target: T1, human RAGE (Homo sapiens, UniProt Q15109); assay: RAGE antagonist activity of reaction samples (120° C., 60 minutes) mixed with AGE-BSA, NF-κB luciferase assay in C6 glioma cells; assay type: cell-based, rat; details: Test Example 2
T1 construct: human RAGE plasmid (including full-length human RAGE cDNA); expressed in transfected cells; host or cells: C6 glioma cells carrying pNF-κB-Luc plasmid and human RAGE plasmid
Procedure: Food-derived proteins, carbohydrates and a phosphate buffer solution were charged in a 30 mL glass test tube in each amount shown in Table 6, followed by sealing and stirring, and then the mixture was reacted in an autoclave at 120° C. for 60 minutes. Next, the reactant was fractionated by centrifugation at 3,000 rpm for 3 hours using an ultrafiltration unit (VIVA SPIN 20, manufactured by Sartorius Corporation). The obtained low molecular weight fraction was used as a sample for determination of 3-DG, while the obtained high molecular weight fraction was used as a sample for the determination of fluorescent AGEs, RAGE agonist activity and RAGE antagonist activity. Food-derived proteins and carbohydrates used are as follows:
Using Luciferase Assay System (manufactured by Promega Corporation), evaluation of RAGE antagonist activity was performed. (Day 1) According to the methods disclosed in Diabetes, 2006, vol. 55, pp. 2510-2522, C6 glioma cells into which pNF-κB-Luc plasmid (manufactured by Stratagene Corporation) and human RAGE plasmid (including full-length human RAGE cDNA) have been introduced were seeded at 100 μL/well into a 96-well plate and cultured in a CO2 incubator until the cells were confluent. For the culture, 10% FBS/DMEM medium was used. (Day 2) The medium was removed, and after wells were washed with 300 μL of serum-free DMEM medium, 100 μL of 0.1% FBS/DMEM medium was slowly added. Then, the medium was incubated overnight in a CO2 incubator. (Day 3) The sample was diluted using the medium, and 50 μL of the diluted sample, AGE-BSA in which AGE was formed with glyceraldehydes (50 μg/mL) as a control, and the mixture of diluted sample and AGE-BSA were added to wells. After incubation in a CO2 incubator for 4 hours, the medium was removed and wells were washed 2 times with 300 μL of PBS(−). Then, 25 μL of 1× lysis buffer was added on ice. After the plate was shaken for 15 seconds, 20 μl of lysate was charged in a new white plate. Further 100 μL of a luciferase assay reagent was added, and a fluorescence intensity was measured by a luminometer. Using 5 μl of lysate, quantitative determination of protein was also performed.

CML = assay: Quantitative determination of CML (CircuLex ELISA kit) after reaction at 120° C. for 60 minutes; assay type: biochemical; details: Test Example 1; for CML: lysine + arginine 0.2 g each, carbohydrate 3.40 g each, 120° C., 60 minutes
Procedure: Amino acids, carbohydrates and a phosphate buffer solution were charged in a 30 mL glass test tube in each amount shown in Table 1, followed by sealing and stirring. […] The filtrate thus obtained was used as a sample. The amino acids and carbohydrates used are as follows. Using CircuLex CML/Nε-(carboxymethyl) lysine ELISA kit (manufactured by CycLex Co., Ltd.), quantitative determination of CML was performed. Thirty (30) or more minutes before use, reagents and CML solid-phase wells were put to room temperature. […] By performing dilution with standard dilution buffers, standards 1 to 7 were prepared. The sample was diluted as necessary with sample dilution buffers. A CML-HSA standard and 60 μL of the sample were dispensed into a 96-well plate, which is not an accessory to the kit. Next, ultrapure water (Milli-Q water) was added to a first antibody powder, and by diluting with sample dilution buffers, a first antibody solution was prepared, and then 60 μL of the antibody solution was dispensed into the plate and mixed. […] Then, the reaction solution was discarded, and 350 μL of rinsing fluid was dispensed to wash the plate. The washing was performed for 4 times. After liquid on the plate was removed, 100 μL of a second antibody solution was dispensed and reacted at 25° C. for 1 hour while being shaken at 300 rpm. The reaction solution was discarded, and the plate was washed for 4 times with 350 μL of rinsing fluid again. Liquid on the plate was removed, and 100 μL of a color coupler was dispensed. Then, the solution was left to stand for 10 minutes under a light shielding condition while being shaken at 300 rpm. Finally, 100 μL of a reaction stop solution was dispensed, and within 30 minutes after the dispensing, measurement was performed at main wavelength 450 nm/reference wavelength 595 nm using a micro-plate reader. The concentration of CML was determined using the calibration curve of a CML standard solution, based on measurement values of the sample.

[1] = amino acids, compared with the test section 1 containing only sucrose
[2] = gliadin + carbohydrate, mixture of sample and AGE-BSA, protein 0.1 μg/mL, relative to control (AGE-BSA) = 1
[3] = lactalbumin + carbohydrate, mixture of sample and AGE-BSA, protein 10 μg/mL, relative to control (AGE-BSA) = 1
[4] = lactic casein + carbohydrate, mixture of sample and AGE-BSA, protein 1 μg/mL, relative to control (AGE-BSA) = 1
[5] = ovalbumin + carbohydrate, mixture of sample and AGE-BSA, protein 10 μg/mL, relative to control (AGE-BSA) = 1
[6] = soybean casein + carbohydrate, mixture of sample and AGE-BSA, protein 0.1 μg/mL, relative to control (AGE-BSA) = 1

T1 sequence (Q15109 23-404): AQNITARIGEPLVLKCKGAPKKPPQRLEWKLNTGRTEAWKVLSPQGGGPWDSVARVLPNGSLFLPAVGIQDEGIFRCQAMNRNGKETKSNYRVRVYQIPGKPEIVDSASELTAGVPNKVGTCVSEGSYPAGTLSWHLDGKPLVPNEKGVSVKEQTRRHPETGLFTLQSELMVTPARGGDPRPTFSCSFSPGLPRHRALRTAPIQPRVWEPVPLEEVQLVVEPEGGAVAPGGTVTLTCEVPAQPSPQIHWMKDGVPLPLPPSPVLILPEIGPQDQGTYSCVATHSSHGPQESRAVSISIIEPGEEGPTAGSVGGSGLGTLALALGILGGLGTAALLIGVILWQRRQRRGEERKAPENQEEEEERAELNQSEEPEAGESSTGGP

Row | SMILES | production of pentosidine (pentosidine; [1]) | Pentosidine (pentosidine) | RAGE antagonist activity (human RAGE; [2]) | RAGE antagonist activity (human RAGE; [3]) | RAGE antagonist activity (human RAGE; [4]) | RAGE antagonist activity (human RAGE; [5]) | RAGE antagonist activity (human RAGE; [6]) | RAGE antagonist activity (human RAGE; test sections 2 and 5 (ovalbumin, lactalbumin) compared with sections 1 and 4 containing sucrose) | production of CML (CML; [1]) | CML (CML)
1 | OC[C@@H](O)[C@@H](O[C@H]1O[C@H](CO)[C@@H](O)[C@H](O)[C@H]1O)[C@H](O)[C@@H](O)CO [Maltitol] | decreased | 3.4 nmol/1 g of amino acid | 0.90 | 0.54 | 1.42 | 1.74 | 0.99 | decreased | decreased | 15.0 nmol/1 g of amino acid
2 | OC[C@H]1O[C@@](CO)(O[C@H]2O[C@H](CO)[C@@H](O)[C@H](O)[C@H]2O)[C@@H](O)[C@@H]1O [Sucrose, reference compound] |  | 8.4 nmol/1 g of amino acid | 1.00 | 0.58 | 1.50 | 1.80 | 1.01 |  |  | 17.4 nmol/1 g of amino acid
